{"source": "paper PMC4076177", "about": "“Soluble Phosphatidylserine Binds to Two Sites on Human Factor IXa in a Ca^2+ Dependent Fashion to Specifically Regulate Structure and Activity” (PLoS ONE, 2014)", "data": [{"molecular_target": "T1, Human FIXa (Homo sapiens, UniProt P00740)", "T1 construct": "gene F9; purchased from Haematologic Technologies, no tag stated", "T1 sequence (P00740 47-191)": "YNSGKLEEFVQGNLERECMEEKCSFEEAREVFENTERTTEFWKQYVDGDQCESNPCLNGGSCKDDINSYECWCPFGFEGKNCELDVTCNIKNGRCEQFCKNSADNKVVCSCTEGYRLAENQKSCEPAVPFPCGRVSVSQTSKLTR", "T1 sequence (P00740 227-461)": "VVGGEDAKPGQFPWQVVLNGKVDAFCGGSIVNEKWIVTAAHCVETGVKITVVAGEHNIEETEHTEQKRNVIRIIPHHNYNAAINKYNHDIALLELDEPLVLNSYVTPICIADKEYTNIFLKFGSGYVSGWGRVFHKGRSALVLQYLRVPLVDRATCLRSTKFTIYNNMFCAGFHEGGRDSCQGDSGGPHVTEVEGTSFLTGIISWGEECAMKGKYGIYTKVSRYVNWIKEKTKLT", "test": "intrinsic fluorescence titration, single-site hyperbolic fit", "assay_type": "binding", "conditions": "5 mM CaCl2, 0.20 µM FIXa, 50 mM Tris, 150 mM NaCl, 0.6% PEG, pH 7.5, 22°C; unreliable (Figure 2 legend prints 2000 µM)", "from_the_text": "(§1) intrinsic fluorescence titration, single-site hyperbolic fit on Human FIXa", "units": {"Kd, μM (determined by monitoring change in intrinsic fluorescence)": "µM"}, "values": [{"smiles": "CCCCCC(=O)OC[C@H](COP(=O)([O-])OCC[N+](C)(C)C)OC(=O)CCCCC", "note": "[C6PC]", "Kd, μM (determined by monitoring change in intrinsic fluorescence)": "1000 ± 45"}]}, {"molecular_target": "T1, Human FIXa", "test": "intrinsic fluorescence titration, single-site hyperbolic fit", "assay_type": "binding", "conditions": "read-out: Kd, μM (determined by monitoring change in intrinsic fluorescence)", "from_the_text": "as §1", "units": {"Kd": "µM"}, "values": [{"smiles": "CCCCCC(=O)OC[C@H](COP(=O)(O)OCC(O)CO)OC(=O)CCCCC", "note": "(stereo partly drawn) [C6PG]", "Kd": "307 ± 28.8"}, {"smiles": "CCCCCC(=O)OC[C@H](COP(=O)(O)OC[C@@H](N)C(=O)O)OC(=O)CCCCC", "note": "[C6(D)PS]", "Kd": "208 ± 18"}, {"smiles": "CCCCCC(=O)OC[C@H](COP(=O)(O)OC[C@H](N)C(=O)O)OC(=O)CCCCC", "note": "[C6PS, 1,2-dicaproyl-sn-glycero-3-phospho-L-serine]", "Kd": "1.3 ± 0.2"}, {"smiles": "CCCCCC(=O)OC[C@H](COP(=O)(O)O)OC(=O)CCCCC", "note": "[C6PA]", "Kd": "238 ± 42.7"}, {"smiles": "CCCCCC(=O)OC[C@H](COP(=O)(O)OCCN)OC(=O)CCCCC", "note": "[C6PE]", "Kd": "66 ± 7"}]}]}
